Here are results for five compounds from patent US6166013A, “Glucocortiocoid-selective agents” (Abbott Laboratories, priority 1999, dated 2000).

Experiment [1] addresses T1, human estrogen receptor-alpha (Homo sapiens, UniProt P03372).
T1 construct: made in house; host or cells: yeast strain BJ2168 (copper induced)
T1 sequence (P03372 1-595): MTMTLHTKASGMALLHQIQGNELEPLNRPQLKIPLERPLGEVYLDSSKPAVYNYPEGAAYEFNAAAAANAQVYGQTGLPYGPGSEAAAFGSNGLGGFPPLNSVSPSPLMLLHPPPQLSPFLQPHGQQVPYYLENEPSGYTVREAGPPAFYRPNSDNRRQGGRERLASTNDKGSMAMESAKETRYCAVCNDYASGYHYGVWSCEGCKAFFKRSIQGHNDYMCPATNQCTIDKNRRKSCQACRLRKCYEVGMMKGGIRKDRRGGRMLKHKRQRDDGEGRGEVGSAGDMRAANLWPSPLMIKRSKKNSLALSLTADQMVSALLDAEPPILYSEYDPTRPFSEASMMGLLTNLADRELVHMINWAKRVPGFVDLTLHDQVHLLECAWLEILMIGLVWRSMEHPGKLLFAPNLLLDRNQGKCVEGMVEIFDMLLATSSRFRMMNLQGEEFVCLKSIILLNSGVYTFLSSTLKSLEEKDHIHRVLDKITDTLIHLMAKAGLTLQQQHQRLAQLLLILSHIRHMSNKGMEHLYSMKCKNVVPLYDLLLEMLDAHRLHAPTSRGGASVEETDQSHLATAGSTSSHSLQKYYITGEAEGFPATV
As to the kind of experiment: soluble estrogen receptor-alpha (ER-α) binding assay, [3H]-estradiol. An excerpt: For soluble estrogen receptor-alpha (ER-α) binding assays, [^3 H]- Estradiol (120-140 Ci/mmol) was purchased from New England Nuclear (Boston, Mass.), 17-beta estradiol was purchased from Sigma Chemical Co. (St. Louis, Mo.), CHAPS and DTT were purchased from Boehringer Mannheim GmbH (W. Germany) and all other reagents were purchased from Sigma.
The human estrogen receptor-alpha cDNA was cloned into a yeast vector termed pYhERα and used to transform wild type yeast strain BJ2168 following the protocol outlined by Pham, T. A., Hwung Y. P., Santiso-Mere,D., McDonnell D. P., O'Malley, B. W., Ligand-Dependent and Independent Function of the Transactivation Regions of the Human Estrogen Receptor in Yeast, Mol. Endocrinol. […] The yeast was induced with copper for 16 hours after which the cells were harvested, washed and the receptor extract prepared in cold buffer via a Bead Beater (BioSpec Products, Bartlesville, Okla.). Aliquots of the receptor typically contained 5-10 mg/ml of total protein and were stored at -80° C. until used. Estradiol or other competing compounds were prepared as 5 mM stock solutions in either 100% ethanol or DMSO and serial dilutions were carried out in 1:1 DMSO-ethanol. The assay buffer consisted of the following: 300 mM potassium chloride, 10 mM Trizma Base, 2 mM DTT and 5 mM CHAPS, pH=7.5 at room temperature.
Assays were set up using a 96-well minitube system and incubations were carried out at 4° C. for 18 hours. Equilibrium under these conditions of buffer and temperature was achieved by 6-8 hours. Nonspecific binding was defined as that binding remaining in the presence of 1000 nM unlabeled estradiol. […] The amount of receptor-ligand complex was determined by liquid scintillation counting of the hydroxyapatite pellet after the addition of […] EcoScint A scintillation cocktail from National Diagnostics (Atlanta, Ga.).
After correcting for nonspecific binding, IC50 values were determined. […] The IC50 values were determined graphically from a log-logit plot of the data.

For experiment [2], the target named is T2, human glucocorticoid receptor-α [GRX] isoform (Homo sapiens, UniProt P04150).
T2 construct: purchased Ligand Pharmaceuticals (San Diego, Calif.); host or cells: insect SF21 cells (baculovirus)
T2 sequence (P04150 1-777): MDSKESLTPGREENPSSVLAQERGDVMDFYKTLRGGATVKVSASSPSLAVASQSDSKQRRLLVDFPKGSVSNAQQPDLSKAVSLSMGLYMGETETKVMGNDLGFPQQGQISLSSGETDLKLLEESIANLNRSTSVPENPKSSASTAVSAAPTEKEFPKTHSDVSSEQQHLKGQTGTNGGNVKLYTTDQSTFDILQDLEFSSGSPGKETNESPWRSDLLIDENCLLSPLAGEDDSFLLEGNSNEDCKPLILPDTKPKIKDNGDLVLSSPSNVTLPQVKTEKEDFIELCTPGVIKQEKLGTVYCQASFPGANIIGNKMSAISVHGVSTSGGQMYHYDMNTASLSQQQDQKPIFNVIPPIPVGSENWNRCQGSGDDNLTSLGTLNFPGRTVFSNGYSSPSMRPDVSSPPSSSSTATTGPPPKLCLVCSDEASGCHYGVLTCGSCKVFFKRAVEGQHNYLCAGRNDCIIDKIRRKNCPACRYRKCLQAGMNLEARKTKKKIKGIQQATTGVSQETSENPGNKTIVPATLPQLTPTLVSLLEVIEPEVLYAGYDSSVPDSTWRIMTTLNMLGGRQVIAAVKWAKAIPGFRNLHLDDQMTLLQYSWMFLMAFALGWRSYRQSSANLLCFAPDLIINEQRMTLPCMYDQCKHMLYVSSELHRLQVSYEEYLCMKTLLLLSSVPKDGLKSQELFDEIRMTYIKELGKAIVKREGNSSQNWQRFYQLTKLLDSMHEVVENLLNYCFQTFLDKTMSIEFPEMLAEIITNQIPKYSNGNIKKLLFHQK
As to the kind of experiment: glucocorticoid receptor (GR) cytosol binding assay, [3H]-dexamethasone. To be noted: displacement of [3H]-Dex (~0.9 nM), 4° C. overnight. A general note: In a radioligand displacement assay an active substance lowers the binding of a labelled ligand.
Description: Briefly, cytosol preparations of human glucocorticoid receptor-α [GRX] isoform and human progesterone receptor-A [PRA] isoform were obtained from Ligand Pharmaceuticals (San Diego, Calif.). Both receptor cDNAs were cloned into baculovirus expression vectors and expressed in insect SF21 cells. [^3 H]-dexamethasone (Dex, specific activity 82-86 Ci/mmole) and [^3 H]-progesterone (Prog, specific activity 97-102 Ci/mmol) were purchased from Amersham Life Sciences (Arlington Heights, Ill.). Glass fiber type C multiscreen MAFC NOB plates were from Millipore (Burlington, Mass.). Hydroxyapatide Bio-Gel HTP gel was obtained from Bio-Rad Laboratories (Hercules, Calif.). Tris(hydroxymethyl)aminomethane (Tris), ethylenediaminetetraacetic acid (EDTA), glycerol, dithiothreitol (DTT) and sodium moylybdate were obtained from Sigma Chemicals (St. Louis, Mo.). […]
After an overnight incubation, 50 μL of hydroxyapatite (25% weight/volume) slurry were added to each well and plates were incubated for 10 min at 4° C. in a plate shaker. […] The amount of radioactivity was determined with a Packard TopCount plate reader.
The Ki of test compounds was determined using the Cheng-Prusoff equation Ki =IC50 /(1+[L*]/[KL ]) where L* is the concentration of radioligand and KL is the dissociation constant of the radioligand determined from saturation analysis.

Where [3] appears, read: displacement of [3H]-estradiol (2-3 nM), 4° C., 18 hours, read-out: Ki ER-α.

Where two headings read alike, the source gives them in different places.

In general, Ki refers to the dissociation constant of the complex between target and ligand, obtained from inhibition or displacement.

As to `CN(C)c1ccc(C(c2ccc(N(C)C)cc2)c2cc(Cl)ccc2Cl)cc1` [Example 24, 4',4"bis(dimethylamino)-2,5-dichlorotriphenylmethane], the Ki in experiment [1] is more than 10 µM. Take `CC(=O)OCCN(C)c1ccc(C(c2ccc(N(C)CCOC(C)=O)cc2)c2cc([N+](=O)[O-])ccc2Cl)cc1` [Example 31, 4',4"bis(N-(2-acetoxyethyl) N-methylamino)-2-chloro-5-nitrotriphenylmethane]: the Ki in experiment [1] (setting [3]) was more than 10 µM.

Consider `CN(CCO)c1ccc(C(c2ccc(N(C)CCO)cc2)c2cc([N+](=O)[O-])ccc2Cl)cc1` [Example 32, 4',4"bis(N-(2-hydroxyethyl) N-methylamino)-2-chloro-5-nitrotriphenylmethane], for which the inhibition constant Ki in experiment [1] (setting [3]) is more than 10 µM. In experiment [2], `CN(C(=O)OC(C)(C)C)c1ccc(C(c2ccc(N(C)C(=O)OC(C)(C)C)cc2)c2cc([N+](=O)[O-])ccc2Cl)cc1` [Example 35, 4',4"bis(N-(t-butoxycarbonyl) N-methylamino)-2-chloro-5-nitrotriphenylmethane] returned a Ki of 4.56 µM.

In experiment [2], `CN(C)c1ccc(C(c2ccc(N(C)C)cc2)c2cc(NC(=O)/C=C/c3ccc([N+](=O)[O-])cc3)ccc2Cl)cc1` [Example 61, 4',4"bis(dimethylamino)-2-chloro-5-(4-nitrocinnamido)triphenylmethane] registered an inhibition constant Ki of 4.6 µM.
